By melting point is commonly meant the temperature, or range, at which the solid turns liquid.

The compound `Clc1cccc(N2CCN(Cc3ccc4ccccc4c3)CC2)c1` yielded a melting point of 114 to 115 °C.

Take `COC(=O)c1ccc(C(O)c2cc3cc(Cl)ccc3n2S(=O)(=O)c2ccc(C(C)C)cc2)cc1` (stereo not drawn): the melting point was 71 °C.

As to `Cc1cc(C2(C(F)(F)F)CC(Cl)=NO2)ccc1NC(=O)OC(C)(C)C` (stereo not drawn), the melting point lay in the range of 83 to 85 °C.

The compound `O=C(Nc1ccc(Br)cc1)C(=O)N1CCC(Cc2ccc(F)cc2)CC1` yielded a melting point of 156 to 158 °C.

In turn, `CCOc1c(C)c(N2CCN(c3ccc(OC)cc3)CC2)c(C)c2c1OC(C)(C)C2=O` yielded a melting point of 109 to 112 °C.

As to `CC(C)(C)NC(=O)Nc1nc2nc(N)ncc2cc1-c1cccnc1`, the melting point is > 300 °C.

For `Cc1noc(NS(=O)(=O)c2ccccc2-c2ccc(-c3ncco3)cc2COCC(C)C)c1C`, the melting point was 86 to 98 °C.

The compound `CCc1ccc(OCCCN2CCC(C(O)(c3ccc(F)cc3)c3ccc(F)cc3)CC2)c(OC)c1` had a melting point of 118 to 120 °C.

The compound `O=S(=O)(Nc1cc(Br)c(O)c2ccccc12)c1cccs1` showed a melting point of 128 to 130 °C.

Regarding `COc1cc(C(=O)O)ccc1CN1CCOc2ccc(NC(=O)OC3CCCC3)cc21`, the melting point was in the range of 221 to 222 °C.

In turn, `CCc1[nH]n(-c2c(Cl)cc(Cl)cc2Cl)c2nc(Cc3cccnc3)nc(=O)c1-2` came in with a melting point of 257 to 260 °C.

The compound `COC(=O)C(=O)Nc1c(-c2ccccc2)c(=O)[nH]c2cc(Cl)ccc12` came in with a melting point of 240 °C.

Compound `COc1cc(O[Si](C)(C)C(C)(C)C)c(C)c(C(=O)O)c1Br` came in with a melting point of 120 to 125 °C.

For the compound `Fc1ccc2c(C3CCNCC3)n[nH]c2c1`, the melting point lay within 214 to 216 °C.

The compound `CC(=O)Oc1cc2nc[nH]c(=O)c2cc1OCc1ccccc1` registered a melting point of 231 to 233 °C.

Take `COC(=O)Cc1cccc(CCN(C)CCCC(C#N)(c2ccc(OC)c(OC)c2)C(C)C)c1` (stereo not drawn): the melting point lay within 77 to 82 °C.

`Cc1cc(-n2c(C)ccc2-c2ccc(S(C)(=O)=O)cc2)ccc1-c1ccoc1` showed a melting point of 69 to 75 °C.

For the compound `O=C1Nc2cc(Cl)ccc2OC1CCCBr` (stereo not drawn), the melting point is 157 to 158 °C.

`CCOC(=O)C(Cc1ccc(C(F)(F)F)cc1)C(=O)c1ccncc1` (stereo not drawn) displayed a melting point of 64 to 65 °C.

For `CC(C)(C)c1cc(-c2nn(CCOC(=O)c3cccnc3)c3ncccc23)cc(C(C)(C)C)c1O`, the melting point is 134 to 136 °C.

Turning to `CN1CCN(c2c(F)c(F)c([N+](=O)[O-])c(NC3CC3)c2F)CC1`, the melting point is 75 °C.

Turning to `O=c1[nH]cnc2c1nc(CC1CCN(Cc3ccccc3)CC1)n2Cc1ccc(F)cc1`, the melting point is 197 °C.

`O=c1oc2ccccc2c2oc(=S)c(-c3ccccc3)cc12` gave a melting point of 256 to 257 °C.

`O=C(O)Cc1nc(-c2ccc(Cl)c(Cl)c2)oc1-c1ccoc1`: the melting point fell in the range of 222 to 223 °C.

`COc1ccc2c(CCN3CC=C(c4c[nH]c5ccccc45)CC3)coc2c1` had a melting point of 54 °C.

The compound `Cc1ccc(S(=O)(=O)NC(=O)OCCc2ccc(-n3c(CCC(=O)N4CCCCC4)nc4cc(C(F)(F)F)c(Cl)cc43)cc2)cc1` came in with a melting point of 210 °C.

`COC(=O)C(C)c1cc(=O)n(Cc2ccccc2)c2ccccc12` (stereo not drawn) displayed a melting point of 90 to 92.5 °C.

For the compound `CCC1(CO)COC(C(C)(C)Oc2ccc(Cl)cc2)=N1` (stereo not drawn), the melting point lay within 94 to 95 °C.

`CCC(=NN=C(c1ccc(Cl)cc1)c1ccc(OS(C)(=O)=O)cc1)NN=C(c1ccc(Cl)cc1)c1ccc(OS(C)(=O)=O)cc1` gave a melting point of 184 to 185 °C.

The compound `CCc1cn2ccccc2c1S(=O)(=O)c1ccc(OCCCCBr)cc1` yielded a melting point of 111 °C.

For `Cc1[nH]c(=O)n(C(C)C)c1-c1ccc(C2CCCCC2)cc1`, the melting point was determined as 274 °C.

As for `CC(C)(C)c1cc(C(=O)N2CC(O)C2)cc(C(C)(C)C)c1O`, the melting point was 185 to 189 °C.

Regarding `CCOC(=O)C1=C(N2CCCC2)N=C(C)C(C(=O)OCC)C1c1ccccc1C#N` (stereo not drawn), the melting point amounted to 115 °C.

The values above are taken from a melting point compilation (Tetko et al.; mined from patent text by program, amines drawn as free bases though some values may be those of a salt).
